The text below walks through data of patent US8173694B2, “Therapeutic agent” (Pentraxin Therapeutics Limited, priority 2001, dated 2012).

SMILES strings stand for the structures.

One experiment addresses T1, CRP in whole human serum (Homo sapiens, UniProt P02741).
T1 construct: Aliquots of a single pool of whole normal human serum, containing SAP and CRP; from tissue; host or cells: pooled whole normal human serum
T1 sequence (P02741 19-224): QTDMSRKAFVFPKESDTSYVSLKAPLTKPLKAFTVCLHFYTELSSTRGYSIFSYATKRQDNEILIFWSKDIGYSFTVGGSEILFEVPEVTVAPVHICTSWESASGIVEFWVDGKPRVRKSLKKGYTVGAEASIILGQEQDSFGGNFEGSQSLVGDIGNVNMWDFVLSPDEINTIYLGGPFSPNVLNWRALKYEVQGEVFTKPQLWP
The experiment is described as follows: Size exclusion chromatography of whole human serum mixed with drug: CRP. The experiment is classed as binding. As for the experimental part: Aliquots of a single pool of whole normal human serum, containing SAP and CRP, were mixed with (R)-1-[6-(R)-2-Carboxy-pyrrolidin-1-yl]-6-oxo-hexanoyl]pyrrolidine-2-carboxylic acid at the molar ratios shown, with respect to pentraxin protomer, and analysed by size exclusion chromatography precisely as described previously (14). The mixtures and the column eluants contained either no calcium ions or 2 mM calcium, and the concentrations of drug appropriate to maintain the molar ratios indicated above. SAP in whole serum is a stable soluble pentameric assembly of protomers, stabilised by the presence of the normal high concentration of serum albumin. However as SAP is separated from serum albumin during gel filtration with a calcium containing eluant, the SAP autoaggregates and elutes entirely as high molecular weight polymers in the void volume of the column. This is because, in the absence of a specific ligand to which it can bind, isolated human SAP is insoluble in the presence of calcium (14). However in the absence of calcium, where no ligand binding or autoaggregation can occur, SAP forms stable decamers, providing an excellent marker for the elution volume of this molecular assembly (14). Human CRP is a stable pentamer either in the presence or absence of calcium and thus provides a robust marker for the elution position of that molecular form (14).

Another experiment has as its target T2, 125I-labelled human SAP (Homo sapiens, UniProt P02743).
T2 construct: intravenous injection of ^125I-labelled pure human or mouse SAP at time zero
The experiment can be described thus: Human SAP tracer in amyloid deposits of mice with AA amyloidosis. Format: in vivo, mouse. As for the experimental part: (§1) Clearance from the amyloid deposits, catabolism and excretion of the human SAP tracer were monitored globally by whole body counting of the mice (left), and the total amount of mouse SAP in the amyloidotic organs was determined after killing the animals on day 5 (right). […] Immediately after the 15 minute bleed, two groups, one that had received human SAP and the other mouse SAP, received a single intraperitoneal injection of 5 mg of (R)-1-[6-(R)-2-Carboxy-pyrrolidin-1-yl]-6-oxo-hexanoyl]pyrrolidine-2-carboxylic acid (desapin). Tracer remaining in the circulation is expressed as the mean (SD) percentage of the amount at the 15 minute time point for each group. […] In one of each of the pairs of groups receiving mouse or human SAP respectively, the tracer had been mixed with (R)-1-[6-(R)-2-Carboxy-pyrrolidin-1-yl]-6-oxo-hexanoyl]pyrrolidine-2-carboxylic acid (desapin) and incubated in vitro before injection into the animals. Tracer remaining in the circulation is expressed as mean (SD) total radioactivity per gram of blood in each group. Bottom panel: effect of administration of (R)-1-[6-(R)-2-Carboxy-pyrrolidin-1-yl]-6-oxo-hexanoyl]pyrrolidine-2-carboxylic acid (desapin) in the drinking water at the concentrations shown, on circulating human SAP values in human SAP transgenic mice. Mice of approximately 20 g body weight consume about 3 ml water per day.
When (R)-1-[6-(R)-2-Carboxy-pyrrolidin-1-yl]-6-oxo-hexanoyl]pyrrolidine-2-carboxylic acid was administered by continuous infusion for 5 days via an indwelling osmotic pump, it dissociated both radiolabelled human SAP tracer, with which the amyloid deposits had previously been loaded, and all the endogenous mouse SAP in the deposits (FIG. 3). […] The SAP-(R)-1-[6-(R)-2-Carboxy-pyrrolidin-1-yl]-6-oxo-hexanoyl]pyrrolidine-2-carboxylic acid complex is evidently recognised as abnormal in vivo and swiftly removed from the circulation, but is apparently formed and/or cleared less efficiently in vivo with mouse SAP compared to human SAP.

Another experiment deals with T3, radiolabelled human SAP (Homo sapiens, UniProt P02743).
T3 construct: intravenous injection of ^125I-labelled pure human or mouse SAP at time zero
The experiment can be described thus: Plasma clearance of radiolabelled human SAP tracer in mice. The experiment is classed as in vivo, mouse. As to the method:
as §1, with “day. […]” for “day.”

The next experiment addresses T4, plasma SAP (Homo sapiens, UniProt P02743).
T4 construct: from tissue; host or cells: plasma of patients in vivo
The experiment can be described thus: Intravenous infusion for 48 h in patients: plasma SAP by electroimmunoassay. The experiment is classed as in vivo. As to the method:
Patients with different forms of systemic amyloidosis, and with varying amyloid loads received the doses of the drug shown for a period of 48 h. Circulating SAP values were measured by electroimmunoassay (24) in samples taken during and after the infusion, at the times shown. Each line represents a different individual patient.
(R)-1-[6-(R)-2-Carboxy-pyrrolidin-1-yl]-6-oxo-hexanoyl]pyrrolidine-2-carboxylic acid was administered for 48 h by intravenous infusion to 8 patients with systemic amyloidosis (7 with AL and one with AA type), one patient with minor localised AL amyloidosis, and one who is a carrier of the amyloidogenic Ala60 transthyretin variant but has no clinical amyloidosis. […] In initial studies with slow continuous infusion, the SAP concentration started to fall when about 2 mg of (R)-1-[6-(R)-2-Carboxy-pyrrolidin-1-yl]-6-oxo-hexanoyl]pyrrolidine-2-carboxylic acid had been given, and in subsequent studies this amount was therefore injected as a bolus at the outset, followed by infusion at the rates shown (FIG. 4). […] However, after drug infusion had ceased, the plasma SAP concentration rapidly returned to normal in the individuals with little or no amyloid, whereas this recovery was markedly delayed in subjects with significant amyloidosis. In the one patient with a very heavy amyloid load, the plasma SAP concentration remained below 25% of its initial value 20 days after the infusion. Most of the daily production of SAP, which is about 50-100 mg per day (15), was evidently distributing into the amyloid deposits before becoming available to replete the plasma pool. This is very strong indirect evidence that even such a brief infusion of (R)-1-[6-(R)-2-Carboxy-pyrrolidin-1-yl]-6-oxo-hexanoyl]pyrrolidine-2-carboxylic acid had substantially depleted the amyloid-associated SAP.
Two individual patients with systemic amyloidosis and moderate amyloid loads received (R)-1-[6-(R)-2-Carboxy-pyrrolidin-1-yl]-6-oxo-hexanoyl]pyrrolidine-2-carboxylic acid (desapin) by intravenous infusion at the steady rates shown. Circulating SAP concentrations started to fall almost immediately and had halved when the concentrations of drug and SAP protomer were equimolar.
The potency of (R)-1-[6-(R)-2-Carboxy-pyrrolidin-1-yl]-6-oxo-hexanoyl]pyrrolidine-2-carboxylic acid in depleting circulating SAP was remarkable, with SAP values falling when the concentration ratio of drug to SAP pentamer in the plasma approached equimolar (FIG. 7). […] This is evidently the species recognised as abnormal and promptly cleared by the liver.

Where [1] appears, read: drug:protein 1:1, calcium present.
[2] abbreviates: drug:protein 10:1, calcium present.
Setting [3] is: drug:protein 100:1, calcium present.

T2 sequence (P02743 20-223): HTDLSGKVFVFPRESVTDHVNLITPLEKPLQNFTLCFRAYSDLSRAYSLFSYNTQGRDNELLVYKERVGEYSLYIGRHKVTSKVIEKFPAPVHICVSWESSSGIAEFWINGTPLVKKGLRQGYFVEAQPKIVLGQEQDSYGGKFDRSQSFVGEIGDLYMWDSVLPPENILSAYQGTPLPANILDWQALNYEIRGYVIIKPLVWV
T4 sequence (P02743 20-223): as above
T3 sequence (P02743 20-223): as above

For `O=C(O)[C@H]1CCCN1C(=O)CCCCC(=O)N1CCC[C@@H]1C(=O)O` [(R)-1-[6-(R)-2-Carboxy-pyrrolidin-1-yl]-6-oxo-hexanoyl]pyrrolidine-2-carboxylic acid], the “Elution volume” value at CRP in whole human serum (setting [1]), at CRP in whole human serum (setting [2]) and on CRP in whole human serum (setting [3]) was 12.0 to 12.5 mL throughout. The Molecular assembly entry at CRP in whole human serum (setting [1]), at CRP in whole human serum (setting [2]) and at CRP in whole human serum (setting [3]) was “Pentamer” throughout. For the same compound, the “Dissociation of human SAP from amyloid deposits” value on 125I-labelled human SAP (50 μg/kg/day, continuous infusion) is on record as “significantly dissociated”. At 125I-labelled human SAP (continuous infusion for 5 days via osmotic pump), the “Dissociation of radiolabelled human SAP tracer from amyloid deposits” value is on record as “dissociated”. Also, the “Uptake of radiolabelled human SAP tracer into mouse AA amyloid deposits” value on 125I-labelled human SAP (intermittent intraperitoneal or subcutaneous injection) was “inhibited uptake”. Moreover, the “Plasma clearance of radiolabelled human SAP tracer” value at radiolabelled human SAP (single intraperitoneal injection of 5 mg) is “accelerated”. Moreover, the “Clearance of radiolabelled human SAP preincubated with drug in vitro” value at radiolabelled human SAP (tracer preincubated with drug before intravenous injection into normal mice) was “extremely rapidly cleared”. Further, at plasma SAP (0.25 mg/kg/day and all higher rates up to 6 mg/kg/day), the “SAP clearance from plasma by the end of the infusion” value is on record as “almost completely cleared”. In addition, the “Depletion of circulating SAP” value on plasma SAP (48 h intravenous infusion, all 10 subjects) is “dramatic, rapid, and consistent depletion”. Besides, on plasma SAP (20 days after the infusion, one patient with very heavy amyloid load), the “Plasma SAP concentration, of its initial value” is “below 25%”. The SAP depletion entry on plasma SAP (infusion rate 0.1 mg/kg/day) was “slower and less complete”. For the same compound, the “Amount of drug given when SAP concentration started to fall” value on plasma SAP (slow continuous intravenous infusion) is recorded as “about 2 mg”. For the same compound, the “Circulating SAP concentration when drug and SAP protomer concentrations were equimolar” value on plasma SAP (two patients, 48 h intravenous infusion) is listed as “halved”.
